In patent EP1289507B1, “USE OF AN ALDOSTERONE ANTAGONIST FOR THE TREATMENT OR PROPHYLAXIS OF ALDOSTERONE-MEDIATED PATHOGENIC EFFECTS” (priority 2000, dated 2001):
Like-named read-outs stand apart in the source and are kept apart here.

How the values were obtained:
[1] = tested on: stroke-prone spontaneously hypertensive rats; conditions: cited from earlier work
[2] = Form H content of dried solids by X-ray powder diffraction (XPRD); format: physicochemical; conditions: for Estimated Weight Percent of Form H / Form H Peak Area 12° Two Theta Peak: dried solids from methyl ethyl ketone crystallization
Experimental: The weight percent of the diepoxide or 11,12-epoxide in each sample is given in Tables C-6A and C-6B, respectively. A micro-flea magnetic stirrer was added to each scintillation vial along with 1 mL of methyl ethyl ketone. The vials were loosely capped and the solid dissolved by heating to reflux on a hot plate with magnetic stirring. Once the solids were dissolved, the solutions were allowed to cool to room temperature on the hot plate. Magnetic stirring was maintained during the cooling period. After the solutions reached room temperature, the solids were collected by vacuum filtration and immediately analyzed by X-ray powder diffraction (XPRD). The solids were then placed in a 100°C oven and dried for one hour at ambient pressure. The dried solids were analyzed by XPRD for Form H content by monitoring the area of the Form H diffraction peak at about 12.1 degrees two theta. All XPRD diffraction patterns were recorded using an Inel Multipurpose Diffractometer. Table C-6A
The peak intensities have been normalized for ease of comparison. No Form H was detected for the dried samples corresponding to the methyl ethyl ketone crystallizations performed at doping levels of 0 and 1%. Form H was detected in the dried samples corresponding to the methyl ethyl ketone crystallizations performed at doping levels of 3 and 5%. The area for the Form H diffraction peak at about 12.1 degrees two theta and the estimated Form H content for each sample are given in Table C-6C below. Table C-6C
The peak intensities have been normalized for ease of comparison. No Form H was detected for the dried samples corresponding to the methyl ethyl ketone crystallizations performed at doping levels of 0, 1% and 5%. Form H was detected in the dried samples corresponding to the methyl ethyl ketone crystallization performed at a doping level of 10%. The area for the Form H diffraction peak at 12.1 degrees two theta and estimated Form H content for each sample are given in Table C-6D. Table C-6D
Table C-7B reports the weight fraction of Form H measured in materials dried using either a fluid bed (LAB-LINE/P.R.L. Hi-Speed Fluid Bed Dryer, Lab-Line Instruments, Inc.) or a vacuum oven (Baxter Scientific Products Vacuum Drying Oven, Model DP-32). […] Table C-7B

[3] = tested on: Stroke Prone Spontaneously Hypertensive Rat (SHR-SP); assay: Blood pressure in stroke prone spontaneously hypertensive rat (SHR-SP), tail cuff plethysmography; format: in vivo
Experimental: Methods: SHR-SP were bred in the animal facilities of New York Medical College and maintained on normal rat chow and non-saline drinking water (i.e., tap water). […] Indirect measurements of systolic blood pressure were assessed by tail cuff plethysmography.

[4] = Food effect pharmacokinetic studies, Japan and Ex-Japan; format: in vivo, Japanese (Japan) and European (Ex-Japan) subjects
Experimental: (§1) The Ex-Japan trials included (i) a single dose tolerability trial, and (ii) a multiple dose tolerability trial, and (iii) a food effect study.
(§2) Both single dose and multiple dose tolerability trials were conducted in Japan utilizing healthy male Japanese subjects. […] Six subjects who received the 100 mg dose also participated in the food effect treatment arm of the single dose tolerability trial.
Table A-11C contains the geometric least squares means for the fed and fasting regimens, the ratios of means and the corresponding 95% confidence intervals (CI) for the ratios of the means for the Japan and Ex-Japan food effect trials.
(§3) Each panel consisted of six subjects who were given eplerenone and two subjects who were given placebo.

[5] = Single dose tolerability and pharmacokinetic trials, Japan and Ex-Japan; format: in vivo, Japanese (Japan) and European (Ex-Japan) subjects; conditions: for CL/F: single dose, least squares mean
Experimental: A total of 76 European subjects and 38 Japanese subjects participated in the single and multiple dose tolerability and food effect trials. Three of the studies were Ex-Japan studies and included doses ranging from 10 mg to 1000 mg. The other two studies were conducted in Japan and included doses ranging from 50 mg to 600 mg.
as §1, §2
Combining single dose fasting pharmacokinetic data from all five studies, an analysis of variance with factors for country (Japan, Ex-Japan), study nested within country, and dose were performed on the dose-normalized Cmax and AUC values to assess the effect of country (population). Dose normalization was done to the lowest dose (10 mg for single dose, 100 mg for multiple dose). In the absence of intravenous data, the distribution volume (V/F) and clearance (CL/F) parameters are represented as the apparent values and are normalized to 70 kg of body weight. There were no statistically significant differences between the Japan and Ex-Japan trials in any of the pharmacokinetic parameters analyzed.
No statistically significant differences were noted between the Japan and ex-Japan population for any of the derived parameters evaluated.
as §3

[6] = tested on: Volume Expanded Hypertensive Rats; conditions: averaged for 24 hours after three weeks
[7] = Pharmacokinetics and absorption after IV and oral [14C]eplerenone in the rat; format: in vivo; conditions: for half-life / clearance: iv, IV 15 mg/kg; for half-life / clearance / Cmax / bioavailability: 15 mg/kg; for Cmax / bioavailability: po; for Cmax: Cmax of total eplerenone
Experimental: Plasma, urine and fecal samples were analyzed for total radioactivity.

[8] = 0% 11,12-epoxide in starting eplerenone mixture
[9] = 0% diepoxide in starting eplerenone mixture
[10] = 1% 11,12-epoxide in starting eplerenone mixture
[11] = 1% diepoxide in starting eplerenone mixture
[12] = 3% diepoxide in starting eplerenone mixture
[13] = 5% 11,12-epoxide in starting eplerenone mixture
[14] = 5% diepoxide in starting eplerenone mixture
[15] = 10% 11,12-epoxide in starting eplerenone mixture

COC(=O)[C@@H]1CC2=CC(=O)CC[C@]2(C)[C@@]23O[C@@H]2C[C@@]2(C)[C@@H](CC[C@@]24CCC(=O)O4)[C@H]13 [Eplerenone, Pregn-4-ene-7,21-dicarboxylic acid, 9,11-epoxy-17-hydroxy-3-oxo-, γ-lactone, methyl ester, (7α, 11α, 17β)-]
proteinuria, renal lesions and hypertension [1]: prevented proteinuria and renal lesions but not severe hypertension
Weight Percent Form H (XPRD) ([2]; cooling rate (0) 1.5°C/min, endpoint (0) 25°C, 100.8% eplerenone seeded with Form H, analyzed by DSC): 100 Weight Percent
Weight Percent Form H (XPRD) ([2]; cooling rate (0) 1.5°C/min, endpoint (0) 25°C, 100.8% eplerenone seeded with Form H, analyzed by XPRD): 77 Weight Percent
Weight Percent Form H (XPRD) ([2]; cooling rate (+) 3°C/min, cooling endpoint (+) 45°C, impurity level (+) 89.3% purity starting material): 29 Weight Percent
Weight Percent Form H (XPRD) ([2]; cooling rate (-) 0.1°C/min, cooling endpoint (+) 45°C, impurity level (+) 89.3% purity starting material): 31 Weight Percent
Weight Percent Form H ([2]; cooling rate High, end point High, impurity level High, drying: High Fluid Bed): 25%
Weight Percent Form H ([2]; cooling rate High, end point High, impurity level High, drying: Low Fluid Bed): 4.7%
Weight Percent Form H ([2]; cooling rate High, end point High, impurity level High, drying: Vacuum Oven): 29%
Weight Percent Form H ([2]; cooling rate Low, end point Low, impurity level Low, drying: Low Fluid Bed): 5.5%
Estimated Weight Percent of Form H [2, 8]: None Detected
Form H Peak Area 12° Two Theta Peak [2, 8]: None Detected
Estimated Weight Percent of Form H [2, 9]: None Detected
Form H Peak Area 12° Two Theta Peak [2, 9]: None Detected
Estimated Weight Percent of Form H [2, 10]: None Detected
Form H Peak Area 12° Two Theta Peak [2, 10]: None Detected
Estimated Weight Percent of Form H [2, 11]: None Detected
Form H Peak Area 12° Two Theta Peak [2, 11]: None Detected
Estimated Weight Percent of Form H [2, 12]: 10%
Form H Peak Area 12° Two Theta Peak [2, 12]: 1168
Estimated Weight Percent of Form H [2, 13]: None Detected
Form H Peak Area 12° Two Theta Peak [2, 13]: None Detected
Estimated Weight Percent of Form H [2, 14]: 30%
Form H Peak Area 12° Two Theta Peak [2, 14]: 4175
Estimated Weight Percent of Form H [2, 15]: 10-15%
Form H Peak Area 12° Two Theta Peak [2, 15]: 1541
systolic blood pressure ([3]; Week 13 (initiation), 100 mg/kg/day p.o. BID): 201.4 ± 1.6 mmHg
systolic blood pressure ([3]; Week 14, 100 mg/kg/day p.o. BID): 202.8 ± 1.8 mmHg
systolic blood pressure ([3]; Week 15, 100 mg/kg/day p.o. BID): 208.0 ± 4.2 mmHg
systolic blood pressure ([3]; Week 16, 100 mg/kg/day p.o. BID): 203.1 ± 6.2 mmHg
AUC (0-lqc), Mean Ratio ([4]; Ex-Japan Food Effect Study): 1.079
Cmax, Mean Ratio (fed/fasted) ([4]; Ex-Japan Food Effect Study): 0.814
AUC (0-inf), Mean Ratio ([4]; Japan Food Effect Study): 1.218
AUC (0-lqc), Mean Ratio ([4]; Japan Food Effect Study): 1.218
Cmax, Mean Ratio (fed/fasted) ([4]; Japan Food Effect Study): 1.157
AUC (0-inf), Mean Ratio ([4]; human, in vivo): 1.079
adverse events ([5]; healthy Japanese male subjects, single doses 50-600 mg): no adverse events were reported
CL/F ([5]; human, blood, po, Ex-Japan, read-out: CL/F (converted)): 228 mL/min
CL/F ([5]; human, blood, po, Japan, read-out: CL/F (converted)): 230 mL/min
CL/F ([5]; Ex-Japan): 14.44 L/hr/70 kg
CL/F ([5]; Japan): 13.52 L/hr/70 kg
HR ([6]; 100 mg/kg s.c.): 352 ± 4 beats/min
SAP ([6]; 100 mg/kg s.c.): 155 ± 7 mmHg
HR ([6]; 200 mg/kg s.c.): 339 ± 4 beats/min
SAP ([6]; 200 mg/kg s.c.): 174 ± 5 mmHg
systemic availability of total radioactivity ([7]; oral 15 mg/kg, female rat): 66.4%
mean Cmax of total radioactivity ([7]; oral 15 mg/kg, female rats): 7.67 µg equivalents/mL
systemic availability of total radioactivity ([7]; oral 15 mg/kg, male rat): 59.6%
mean Cmax of total radioactivity ([7]; oral 15 mg/kg, male rats): 7.64 µg equivalents/mL
half-life ([7]; rat, plasma, elimination half-life of eplerenone, female rat): 1.14 h
half-life ([7]; rat, plasma, elimination half-life of total eplerenone, female rat, closed plus open form): 1.14 h
half-life ([7]; rat, plasma, elimination half-life of total eplerenone, male rat, lactone ring closed form plus open form): 1.01 h
clearance ([7]; rat, plasma, plasma clearance (CL) of eplerenone, female rat): 20 mL/min/kg
clearance ([7]; rat, plasma, plasma clearance (CL) of total eplerenone, female rat): 11.6 mL/min/kg
clearance ([7]; rat, plasma, plasma clearance (CL) of total eplerenone, male rat): 16.4 mL/min/kg
Cmax ([7]; rat, plasma, oral 15 mg/kg, female rat): 6350 ng/mL
Cmax ([7]; rat, plasma, oral 15 mg/kg, male rat): 3200 ng/mL
bioavailability ([7]; rat, plasma, systemic availability of eplerenone, oral 15 mg/kg, female rat): 66.1%
bioavailability ([7]; rat, plasma, systemic availability of eplerenone, oral 15 mg/kg, male rat): 25.6%
bioavailability ([7]; rat, plasma, systemic availability of total eplerenone, oral 15 mg/kg, female rat): 74.2%
bioavailability ([7]; rat, plasma, systemic availability of total eplerenone, oral 15 mg/kg, male rat): 29.4%
Tmax ([7]; rat, plasma, oral 15 mg/kg, male rats): 0.5 h
